Measured values reported in US6355799B1, “Substituted benzene compounds, process for their preparation, and herbicidal and defoliant compositions containing them” (ISK Americas Incorporated, priority 1997, dated 2002).

Key:
Assay type in all cases: in vivo
[1] = test system: green foxtail (Setaria viridis, SETVI); experiment: Post-emerge test, greenhouse herbicide activity screening; details: phytotoxicity rating 0-100 (0 no damage, 100 complete death), 14 days after application
Summary of the method: (§1)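 Applied at 15–1000 g ai/ha from acetone in 187 l/ha spray volume. Post-emergence applications included 0.25% v/v non-ionic surfactant and reached plants sown 8–21 days before. Pre-emergence applications were incorporated by surface watering. Efficacy or crop damage was rated on a 0–100 scale after 14 days.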

[2] = test system: ivyleaf morningglory (Ipomoea hederacea, IPOHE); experiment: as above; details: phytotoxicity rating 0-100 (0 no damage, 100 complete death), 14 days after application
Summary of the method: as §1

[3] = test system: barnyardgrass (Echinochloa crus-galli, ECHCG); experiment: as above; details: phytotoxicity rating 0-100 (0 no damage, 100 complete death), 14 days after application
Summary of the method: as §1

[4] = test system: velvetleaf (Abutilon theophrasti, ABUTH); experiment: as above; details: phytotoxicity rating 0-100 (0 no damage, 100 complete death), 14 days after application
Summary of the method: as §1

[5] = test system: redroot pigweed (Amaranthus retroflexus, AMARE); experiment: as above; details: phytotoxicity rating 0-100 (0 no damage, 100 complete death), 14 days after application
Summary of the method: as §1

[6] = test system: lambsquarters (Chenopodium album, CHEAL); experiment: as above; details: phytotoxicity rating 0-100 (0 no damage, 100 complete death), 14 days after application
Summary of the method: as §1

[7] = test system: sicklepod (Cassia obtusifolia, CASOB); experiment: as above; details: phytotoxicity rating 0-100 (0 no damage, 100 complete death), 14 days after application
Summary of the method: as §1

[8] = test system: johnsongrass (Sorghum halepense, SORHA); experiment: as above; details: phytotoxicity rating 0-100 (0 no damage, 100 complete death), 14 days after application
Summary of the method: as §1

[9] = test system: large crabgrass (Digitaria sanguinalis, DIGSA); experiment: as above; details: phytotoxicity rating 0-100 (0 no damage, 100 complete death), 14 days after application
Summary of the method: as §1

[10] = test system: common ragweed (Ambrosia artemisizfolia L., AMBEL); experiment: as above; details: 250 g ai/ha; phytotoxicity rating 0-100 (0 no damage, 100 complete death), 14 days after application
Summary of the method: as §1

[11] = test system: field corn (Zea mays L., var. Dekalb 535, CORN); experiment: Pre-emerge test, crop safety; details: pre-emerge, rated 14 days after application, 0 = no damage, 100 = complete death
Summary of the method: (§2)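 Visual ratings on a 0-100 scale (0 no damage, 100 all plants dead) were taken at 14 days after treatment. Rates of 15-1000 g ai/ha in acetone, 187 l/ha, were sprayed onto soil one day after planting (pre-emerge) or onto 2-3 leaf plants with 0.25% v/v surfactant (post-emerge).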

[12] = test system: upland rice (Oryza sp., var. Tebonnet, RICE); experiment: Pre-emerge test, crop safety; details: pre-emerge, rated 14 days after application, 0 = no damage, 100 = complete death
Summary of the method: as §2

[13] = test system: green foxtail (Setaria viridis, SETVI); experiment: Pre-emerge test, greenhouse herbicide activity screening; details: pre-emerge, rated 14 days after application, 0 = no damage, 100 = complete death
Summary of the method: (§3)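 Herbicidal damage is scored 0 (none) to 100 (complete plant death) two weeks after a simulated field spray. Rates span 15–1000 g ai/ha, delivered in acetone at 187 l/ha. For post-emergence treatments, plants have 2–3 leaves and the spray carries 0.25% v/v non-ionic surfactant.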

[14] = test system: ivyleaf morningglory (Ipomoea hederacea, IPOHE); experiment: as above; details: pre-emerge, rated 14 days after application, 0 = no damage, 100 = complete death
Summary of the method: as §3

[15] = test system: barnyardgrass (Echinochloa crus-galli, ECHCG); experiment: as above; details: pre-emerge, rated 14 days after application, 0 = no damage, 100 = complete death
Summary of the method: as §3

[16] = test system: velvetleaf (Abutilon theophrasti, ABUTH); experiment: as above; details: pre-emerge, rated 14 days after application, 0 = no damage, 100 = complete death
Summary of the method: as §3

[17] = test system: lambsquarters (Chenopodium album, CHEAL); experiment: as above; details: pre-emerge, rated 14 days after application, 0 = no damage, 100 = complete death
Summary of the method: as §3

[18] = test system: sicklepod (Cassia obtusifolia, CASOB); experiment: as above; details: pre-emerge, rated 14 days after application, 0 = no damage, 100 = complete death
Summary of the method: as §3

[19] = test system: johnsongrass (Sorghum halepense, SORHA); experiment: as above; details: pre-emerge, rated 14 days after application, 0 = no damage, 100 = complete death
Summary of the method: as §3

[20] = test system: large crabgrass (Digitaria sanguinalis, DIGSA); experiment: as above; details: pre-emerge, rated 14 days after application, 0 = no damage, 100 = complete death
Summary of the method: as §3

[21] = test system: redroot pigweed (Amaranthus retroflexus, AMARE); experiment: as above; details: pre-emerge, rated 14 days after application, 0 = no damage, 100 = complete death
Summary of the method: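 Sandy loam pots; pre-emerge: sown 1 d pre-spray, surface-watered after, then bottom-watered. Post-emerge: sown 8–21 d before, 2–3 leaf stage, + 0.25% v/v NIS, bottom-watered. Acetone, 187 l/ha track spray, 15–1000 g ai/ha. 0–100 injury score, day 14.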

[22] = test system: field corn (Zea mays L., var. Dekalb 535, CORN); experiment: Post-emerge test, crop safety; details: phytotoxicity rating 0-100 (0 no damage, 100 complete death), 14 days after application
Summary of the method: as §3

[23] = test system: upland rice (Oryza sp., var. Tebonnet, RICE); experiment: Post-emerge test, crop safety; details: phytotoxicity rating 0-100 (0 no damage, 100 complete death), 14 days after application
Summary of the method: as §3

CCOC(=O)CC(=O)Nc1c(OC(=O)CC(=O)OCC)c(Cl)cc(F)c1-n1c(=O)cc(C(F)(F)F)n(C)c1=O [2-16]
Post-emerge Herbicidal Activity SETVI ([1]; 63 g ai/ha): 50
Post-emerge Herbicidal Activity SETVI ([1]; 250 g ai/ha): 100
Post-emerge Herbicidal Activity IPOHE ([2]; 63 g ai/ha): 99
Post-emerge Herbicidal Activity IPOHE ([2]; 250 g ai/ha): 100
Post-emerge Herbicidal Activity ECHCG ([3]; 63 g ai/ha): 90
Post-emerge Herbicidal Activity ECHCG ([3]; 250 g ai/ha): 100
Post-emerge Herbicidal Activity ABUTH ([4]; 63 g ai/ha): 100
Post-emerge Herbicidal Activity ABUTH ([4]; 250 g ai/ha): 100
Post-emerge Herbicidal Activity AMARE ([5]; 63 g ai/ha): 50
Post-emerge Herbicidal Activity AMARE ([5]; 250 g ai/ha): 100
Post-emerge Herbicidal Activity CHEAL ([6]; 63 g ai/ha): 80
Post-emerge Herbicidal Activity CHEAL ([6]; 250 g ai/ha): 100
Post-emerge Herbicidal Activity CASOB ([7]; 63 g ai/ha): 10
Post-emerge Herbicidal Activity CASOB ([7]; 250 g ai/ha): 80
Post-emerge Herbicidal Activity SORHA ([8]; 63 g ai/ha): 40
Post-emerge Herbicidal Activity SORHA ([8]; 250 g ai/ha): 95
Post-emerge Herbicidal Activity DIGSA ([9]; 63 g ai/ha): 20
Post-emerge Herbicidal Activity DIGSA ([9]; 250 g ai/ha): 60
Post-emerge Herbicidal Activity AMBEL [10]: 100
Pre-emerge crop damage CORN (phytotoxicity rating, scale 0-100) ([11]; 63 g ai/ha): 0
Pre-emerge crop damage CORN (phytotoxicity rating, scale 0-100) ([11]; 250 g ai/ha): 20
Pre-emerge crop damage RICE (phytotoxicity rating, scale 0-100) ([12]; 63 g ai/ha): 0
Pre-emerge crop damage RICE (phytotoxicity rating, scale 0-100) ([12]; 250 g ai/ha): 15
Pre-emerge Herbicidal Activity SETVI (phytotoxicity rating, scale 0-100) ([13]; 63 g ai/ha): 0
Pre-emerge Herbicidal Activity SETVI (phytotoxicity rating, scale 0-100) ([13]; 250 g ai/ha): 100
Pre-emerge Herbicidal Activity IPOHE (phytotoxicity rating, scale 0-100) ([14]; 63 g ai/ha): 0
Pre-emerge Herbicidal Activity IPOHE (phytotoxicity rating, scale 0-100) ([14]; 250 g ai/ha): 90
Pre-emerge Herbicidal Activity ECHCG (phytotoxicity rating, scale 0-100) ([15]; 63 g ai/ha): 0
Pre-emerge Herbicidal Activity ECHCG (phytotoxicity rating, scale 0-100) ([15]; 250 g ai/ha): 40
Pre-emerge Herbicidal Activity ABUTH (phytotoxicity rating, scale 0-100) ([16]; 63 g ai/ha): 80
Pre-emerge Herbicidal Activity ABUTH (phytotoxicity rating, scale 0-100) ([16]; 250 g ai/ha): 100
Pre-emerge Herbicidal Activity CHEAL (phytotoxicity rating, scale 0-100) ([17]; 63 g ai/ha): 95
Pre-emerge Herbicidal Activity CHEAL (phytotoxicity rating, scale 0-100) ([17]; 250 g ai/ha): 100
Pre-emerge Herbicidal Activity CASOB (phytotoxicity rating, scale 0-100) ([18]; 63 g ai/ha): 0
Pre-emerge Herbicidal Activity CASOB (phytotoxicity rating, scale 0-100) ([18]; 250 g ai/ha): 100
Pre-emerge Herbicidal Activity SORHA (phytotoxicity rating, scale 0-100) ([19]; 63 g ai/ha): 0
Pre-emerge Herbicidal Activity SORHA (phytotoxicity rating, scale 0-100) ([19]; 250 g ai/ha): 80
Pre-emerge Herbicidal Activity DIGSA (phytotoxicity rating, scale 0-100) ([20]; 63 g ai/ha): 0
Pre-emerge Herbicidal Activity DIGSA (phytotoxicity rating, scale 0-100) ([20]; 250 g ai/ha): 100
Pre-emerge Herbicidal Activity AMARE (phytotoxicity rating, scale 0-100) ([21]; 63 g ai/ha): 50
Pre-emerge Herbicidal Activity AMARE (phytotoxicity rating, scale 0-100) ([21]; 250 g ai/ha): 100
Post-emerge Herbicidal Activity CORN (crop damage) ([22]; 63 g ai/ha): 70
Post-emerge Herbicidal Activity CORN (crop damage) ([22]; 250 g ai/ha): 90
Post-emerge Herbicidal Activity RICE (crop damage) ([23]; 63 g ai/ha): 40
Post-emerge Herbicidal Activity RICE (crop damage) ([23]; 250 g ai/ha): 45
